In US20230184744A1, “INTERTUMORAL HOMOGENEITY DETERMINED BY MiCK ASSAY” (Pierian Biosciences, LLC, priority 2014, published 2023):
Numbered stars: 1 amine (or outer) side, 2 acyl side, 3 side chain; on linkers, the order of the positions; unused ones are H or OH. Bridge positions count the residues as written; N and C are the ends. Square brackets hold non-standard residues; d marks the D form. Peptide text beside a SMILES is read from it. I, II: the chains in the order shown. Actinocin(9to1) = Cc1c2oc3c(C)ccc(C(=O)[*:1])c3nc-2c(C(=O)[*:2])c(N)c1=O; NMeV = CN[C@H](C(=O)O)C(C)C; Sar = CNCC(=O)O

What was measured:
[1] = system: Pancreatic islet cell cancer (lymph node); experiment: MiCK assay, drug-induced apoptosis, Table 4 tumor A1; conditions: Table 4 tumor A1: Pancreatic islet cell cancer (lymph node); 48 hours with drug
Description: (§3) After overnight incubation, chemotherapy drugs were added to the wells of the 96-well plate in 5 μL aliquots or to the wells of a 384-well plate in 2.5 μL aliquots using an automated pipettor. The number of drugs or drug combinations and the number of concentrations tested depended on the number of viable malignant cells that were isolated from the tumor specimen. The drug concentrations, determined by molarity, were those indicated by the manufacturer as the desired blood level concentration plus or minus one serial dilution if enough cells were available.
(§4) Following drug addition, the plate was incubated for 30 min. at 37° C. in a 5% carbon dioxide humidified atmosphere incubator. Each well was then overlayed with sterile mineral oil, and the plate was placed into the incubator chamber of a microplate spectrophotometric reader. The optical density at 600 nanometers was read and recorded every 5 minutes over a period of 48 hours.
(§5) Patients: Three patients were included in this study. Two tumor samples from different tumor sites were collected from each patient. Both samples from each patient were collected on the same day.

[2] = system: Lung small cell carcinoma (site A); experiment: MiCK assay, drug-induced apoptosis, Table 4 tumor C1; conditions: Table 4 tumor C1: Lung small cell carcinoma (site A); 48 hours with drug
Description: as §3, §4, §5

[3] = system: Lung adenocarcinoma (pleural effusion); experiment: MiCK assay, drug-induced apoptosis, Table 4 tumor B1; assay type: cell-based, human; conditions: Table 4 tumor B1: Lung adenocarcinoma (pleural effusion); 48 hours with drug
Excerpt: (§1) Data were obtained optically using Mie light-scattering.
Patients: Three patients were included in this study. […] Patient A was diagnosed with pancreatic islet cell cancer; sample 1 was collected from lymph node and sample 2 was collected from the primary tumor. Patient B was diagnosed with lung cancer NSCLC adenocarcinoma; sample 1 was collected from pleural effusion and sample 2 was collected from solid tumor. […] Ages of the patients ranged from 51-79 years old with an average age of 65 years. One patient was […] and two were female.

[4] = system: Pancreatic islet cell cancer (primary tumor); experiment: MiCK assay, drug-induced apoptosis, Table 4 tumor A2; conditions: 48 hours with drug
Description: as §3
(§6) Following drug addition, the plate was incubated for 30 min. at 37° C. in a 5% carbon dioxide humidified atmosphere incubator. Each well was then overlayed with sterile mineral oil, and the plate was placed into the incubator chamber of a microplate spectrophotometric reader. The optical density at 600 nanometers was read and recorded every 5 minutes over a period of 48 hours. Optical density increases, which correlates with apoptosis, were converted to kinetic units (KU) of apoptosis by a proprietary software ProApo with a formula described in the Kravtsov reference incorporated by reference (i.e. Kravtsov V. et al. “Use of the Microculture Kinetic Assay of apoptosis to determine chemosensitivities of leukemias.” Blood 1998; 92:968-980).
(§7) Purified tumor cells were cultured for 48 hours with individual drugs, and drug-induced apoptosis was measured using the MiCK assay as described in Example 1. Data were obtained optically using Mie light-scattering.

[5] = system: Probable mesothelioma (pleural effusion); experiment: MiCK assay, drug-induced apoptosis, Table 3 tumor A2; assay type: cell-based, human; conditions: Table 3 tumor A2: Probable mesothelioma (pleural effusion); 48 hours with drug
Description: as §1
When the optimal cell concentration is reached, put the cells in the plate and incubate overnight in the incubating chamber of the incubator (37° C.).

[6] = system: NSCLC, bilateral well-differentiated adenocarcinoma (site 1A); experiment: MiCK assay, drug-induced apoptosis, Table 3 tumor B1; assay type: cell-based, human; conditions: Table 3 tumor B1: NSCLC, bilateral well-differentiated adenocarcinoma (site 1A); 48 hours with drug
Excerpt: as §1
(§2) Do a test well. […] Look at the well under the inverted microscope. […] Repeat until optimal cell concentration is found. Plate the cells into the wells.

[7] = system: NSCLC, bilateral well-differentiated adenocarcinoma (site 1B); experiment: MiCK assay, drug-induced apoptosis, Table 3 tumor B2; assay type: cell-based, human; conditions: Table 3 tumor B2: NSCLC, bilateral well-differentiated adenocarcinoma (site 1B); 48 hours with drug
Excerpt: as §1, §2

[8] = system: NSCLC, multi-focal, recurrent adenocarcinoma (site A); experiment: MiCK assay, drug-induced apoptosis, Table 3 tumor C1; assay type: cell-based, human; conditions: Table 3 tumor C1: NSCLC, multi-focal, recurrent adenocarcinoma (site A); 48 hours with drug
Excerpt: as §1, §2

[9] = system: NSCLC, multi-focal, recurrent adenocarcinoma (lymph node); experiment: MiCK assay, drug-induced apoptosis, Table 3 tumor D2; assay type: cell-based, human; conditions: Table 3 tumor D2: NSCLC, multi-focal, recurrent adenocarcinoma (lymph node); 48 hours with drug
Excerpt: as §1, §2

[10] = system: NSCLC, multi-focal adenocarcinoma (site A); experiment: MiCK assay, drug-induced apoptosis, Table 3 tumor E1; assay type: cell-based, human; conditions: Table 3 tumor E1: NSCLC, multi-focal adenocarcinoma (site A); 48 hours with drug
Excerpt: as §1, §2

[11] = system: NSCLC, multi-focal, recurrent adenocarcinoma (right lung); experiment: MiCK assay, drug-induced apoptosis, Table 3 tumor D1; assay type: cell-based, human; conditions: Table 3 tumor D1: NSCLC, multi-focal, recurrent adenocarcinoma (right lung); 48 hours with drug
Excerpt: as §1, §2

[12] = system: Lung adenocarcinoma (site B); experiment: MiCK assay, drug-induced apoptosis, Table 4 tumor C2; conditions: Table 4 tumor C2: Lung adenocarcinoma (site B); 48 hours with drug
Description: as §3, §6, §7

Compound	kinetic units (KU) of apoptosis [1] [KU]	kinetic units (KU) of apoptosis [2] [KU]	kinetic units (KU) of apoptosis [5] [KU]	kinetic units (KU) of apoptosis [6] [KU]	kinetic units (KU) of apoptosis [7] [KU]	other results
O=NN(CCCl)C(=O)NC1CCCCC1 [CCNU]	1.00	0.90				
Cn1c(CCCC(=O)O)nc2cc(N(CCCl)CCCl)ccc21 [Bendamustine]	1.39					
CCN(CC)CCNC(=O)c1c(C)[nH]c(/C=C2\C(=O)Nc3ccc(F)cc32)c1C [Sunitinib]	1.93					kinetic units (KU) of apoptosis [3]: 0.70 KU; kinetic units (KU) of apoptosis [4]: 2.06 KU
CN(N=O)C(=O)N[C@@H](C=O)[C@@H](O)[C@H](O)[C@H](O)CO [Streptozocin]	0.23					kinetic units (KU) of apoptosis [4]: 0.0 KU
O=P1(NCCCl)OCCCN1CCCl (centres unmarked) [4HI (Ifosfamide), Ifosfamide]	3.01	1.50	3.40	2.70	0.70	kinetic units (KU) of apoptosis [8]: 0.50 KU; kinetic units (KU) of apoptosis [9]: 1.20 KU; kinetic units (KU) of apoptosis [10]: 0.10 KU; kinetic units (KU) of apoptosis [3]: 2.40 KU
Nc1nc2[nH]cc(CCc3ccc(C(=O)N[C@@H](CCC(=O)O)C(=O)O)cc3)c2c(=O)[nH]1 [Alimta, Pemetrexed]	0.22	1.40	1.20	1.40	1.60	kinetic units (KU) of apoptosis [8]: 0.80 KU; kinetic units (KU) of apoptosis [11]: 0.70 KU; kinetic units (KU) of apoptosis [9]: 0.60 KU; kinetic units (KU) of apoptosis [12]: 0.70 KU
CN(C)/N=N/c1[nH]cnc1C(N)=O [Dacarbazine]	1.31					kinetic units (KU) of apoptosis [4]: 0.00 KU
Cc1c2oc3c(C)ccc(C(=O)N[C@@H]4C(=O)N[C@H](C(C)C)C(=O)N5CCC[C@H]5C(=O)N(C)CC(=O)N(C)[C@@H](C(C)C)C(=O)O[C@@H]4C)c3nc-2c(C(=O)N[C@@H]2C(=O)N[C@H](C(C)C)C(=O)N3CCC[C@H]3C(=O)N(C)CC(=O)N(C)[C@@H](C(C)C)C(=O)O[C@@H]2C)c(N)c1=O [Dactinomycin] (I: T[dV]P[Sar][NMeV] / II: T[dV]P[Sar][NMeV]; ester I:1-I:C, II:1-II:C; linker I:N-II:N via Actinocin(9to1))		7.70	4.70	1.20	0.90	kinetic units (KU) of apoptosis [11]: 0.90 KU; kinetic units (KU) of apoptosis [3]: 2.70 KU; kinetic units (KU) of apoptosis [12]: 3.00 KU
COc1cccc2c1C(=O)c1c(O)c3c(c(O)c1C2=O)C[C@@](O)(C(C)=O)C[C@@H]3O[C@H]1C[C@H](N)[C@H](O)[C@H](C)O1 [Daunorubicin]		8.10	3.80	1.40	1.40	
C#Cc1cccc(Nc2ncnc3cc(OCCOC)c(OCCOC)cc23)c1 [Tarceva]	0.66	0.00	0.80	0.60	0.60	kinetic units (KU) of apoptosis [11]: 0.5 KU; kinetic units (KU) of apoptosis [12]: 0.70 KU
N[C@@H](Cc1ccc(N(CCCl)CCCl)cc1)C(=O)O [Melphalan]	0.57					kinetic units (KU) of apoptosis [3]: 3.10 KU
O=C1c2c(O)ccc(O)c2C(=O)c2c(NCCNCCO)ccc(NCCNCCO)c21 [Mitoxantrone]	0.82	1.60				kinetic units (KU) of apoptosis [3]: 2.30 KU
Nc1nc(Cl)nc2c1ncn2[C@H]1C[C@H](O)[C@@H](CO)O1 [Cladribine]	0.61					
CO[C@@]12[C@H](COC(N)=O)C3=C(C(=O)C(C)=C(N)C3=O)N1C[C@@H]1N[C@@H]12 [Mitomycin]	1.04	6.30	1.00	1.20	1.00	kinetic units (KU) of apoptosis [8]: 0.00 KU; kinetic units (KU) of apoptosis [11]: 0.60 KU; kinetic units (KU) of apoptosis [3]: 0.90 KU
C/C(=C\c1csc(C)n1)[C@@H]1C[C@@H]2O[C@]2(C)CCC[C@H](C)[C@H](O)[C@@H](C)C(=O)C(C)(C)[C@@H](O)CC(=O)N1 [Ixabepilone]	1.00					
CCCCCOC(=O)Nc1nc(=O)n([C@@H]2O[C@H](C)[C@@H](O)[C@H]2O)cc1F [Xeloda]	0.42					kinetic units (KU) of apoptosis [4]: 0.90 KU
Cn1nnc2c(C(N)=O)ncn2c1=O [Temozolomide]	0.62					kinetic units (KU) of apoptosis [4]: 1.22 KU
O=NN(CCCl)C(=O)NCCCl [Carmustine]	0.82	3.00				kinetic units (KU) of apoptosis [3]: 1.20 KU; kinetic units (KU) of apoptosis [12]: 0.50 KU
O=c1[nH]cc(F)c(=O)[nH]1 [5FU, 5-Fluorouracil]	0.42					
Bleomycin			1.00	1.90	1.30	
CNC(=O)c1cc(Oc2ccc(NC(=O)Nc3ccc(Cl)c(C(F)(F)F)c3)cc2)ccn1 [Sorafenib]	1.57					
Nc1ncn([C@@H]2O[C@H](CO)[C@@H](O)[C@H]2O)c(=O)n1 [Vidaza]	1.00					
CC(=O)[C@]1(O)Cc2c(O)c3c(c(O)c2[C@@H](O[C@H]2C[C@H](N)[C@H](O)[C@H](C)O2)C1)C(=O)c1ccccc1C3=O [Idarubicin]	1.22	8.00	4.00	1.20	1.10	kinetic units (KU) of apoptosis [8]: 0.90 KU; kinetic units (KU) of apoptosis [11]: 1.30 KU; kinetic units (KU) of apoptosis [12]: 3.00 KU
CC(C)C[C@H](NC(=O)[C@H](Cc1ccccc1)NC(=O)c1cnccn1)B(O)O [Velcade, Bortezomib]	0.79	1.60	1.10	2.00	2.00	kinetic units (KU) of apoptosis [8]: 0.20 KU; kinetic units (KU) of apoptosis [11]: 0.60 KU; kinetic units (KU) of apoptosis [3]: 3.40 KU; kinetic units (KU) of apoptosis [12]: 1.80 KU
CO[C@H]1C[C@@H]2CC[C@@H](C)[C@@](O)(O2)C(=O)C(=O)N2CCCC[C@H]2C(=O)O[C@H]([C@H](C)C[C@@H]2CC[C@@H](OCCO)[C@H](OC)C2)CC(=O)[C@H](C)/C=C(\C)[C@@H](O)[C@@H](OC)C(=O)[C@H](C)C[C@H](C)/C=C/C=C/C=C/1C [Everolimus]	1.31	0.50				kinetic units (KU) of apoptosis [4]: 0.00 KU; kinetic units (KU) of apoptosis [12]: 1.00 KU
Cc1ccc(NC(=O)c2ccc(CN3CCN(C)CC3)cc2)cc1Nc1nccc(-c2cccnc2)n1 [Gleevec, imatinib]	0.39	0.00				
CC[C@]1(O)C[C@@H]2CN(CCc3c([nH]c4ccccc34)[C@@](C(=O)OC)(c3cc4c(cc3OC)N(C)[C@H]3[C@@](O)(C(=O)OC)[C@H](OC(C)=O)[C@]5(CC)C=CCN6CC[C@]43[C@@H]65)C2)C1 [Vinblastine]	1.00	3.10				kinetic units (KU) of apoptosis [12]: 2.00 KU
